Results: US10675286B2, “Heterocyclic compounds and uses thereof” (Infinity Pharmaceuticals, Inc., priority 2014, dated 2020)
pIC50: −log10 of the molar value. Entries after “also recorded” stand apart in the source; their conditions may differ.

Legend:
[1] = In vitro toxicology studies
[2] = test system: CT26 colon cancer; experiment: CT26 colon cancer model; type: in vivo, mouse; conditions: CT26 subcutaneous tumors
[3] = test system: T cell activation (IFN-γ in response to ConA); experiment: T cell activation in human whole blood (Con-A, IFN-γ readout); type: cell-based; conditions: 24 hours, read-out: IC50, T cell activation as measured by inhibition of IFN-γ
Method: The purpose of this study is to evaluate the effect of various antigens (Con-A) in T cell activation in Human Whole Blood vs. 1:1 Diluted Blood using test compounds at 24 hour time-point.
T-cell Activation Media includes RPMI-1000 ml, MEM NEAA-10 ml, Sodium Pyruvate (100 mM)-10 ml, Pen Strep-10 ml, 2-Mercaptoethanol-1 ml, and FBS-100 ml. 100 ul of whole blood were plated in 96 well plate. Used only the 60 inside wells and filled the outside with media or PBS. Diluted human whole blood with 5% Serum RPMI 1640 1:1 and plate 100 ul in 96 well plate. Used only the 60 inside wells and filled the outside with media or PBS.
The compound was diluted using DMSO (Sigma hybridmax). For 1000 nM highest concentration starting from a 10 mM stock, added 300 ul of DMSO into deep well plates. To the highest concentration add 10 ul of 10 mM compound stock.
A media plate was prepared from DMSO plate by taking 100 ul and go into 900 ul media in new deep well plate, taping plate, and putting on mixer for 5 minutes.
The rested cell plates were removed from incubator. Added 12 uL of diluted compound from media plate (final DMSO is 1%), and incubated for 45 minutes.
Con-A was prepared as follows: 200 ul stock into 1 ml Media, 100 ul of that into 1 ml Media, 100 ul of that into 1 ml Media. […] This was analyzed after 24 Hours.
10× stock in media, added 12 ul per well. […] Analyzed with multiplex elisa from MSD. […]

[4] = Oral pharmacokinetics of Compound BB in rat; type: in vivo; conditions: 7.5 mg/kg oral
Excerpt: Compound BB's oral exposure is high in rat, dog and monkey. Good oral bioavailability and low clearance in rodent and non-rodent animal species results in high oral exposure.

[5] = Dose-exposure proportionality (FIG. 44); conditions: in vivo
[6] = test system: Farage cell line; experiment: Combination isobologram in Farage cell line; type: cell-based; conditions: combination of Compound AA and Compound BB
[7] = test system: T cell proliferation suppressed by CT26 tumor cells; experiment: Ex vivo T cell proliferation (CFSE) with cells of CT26 tumors; type: cell-based, mouse; conditions: vs tumor cells from vehicle treated mice
Method: CT26 was an N-nitroso-N-methylurethane-(NNMU)induced, undifferentiated colon carcinoma cell line. It was cloned to generate the cell line designated CT26.WT (ATCC CRL-2638).
The duration of the study was 1 week under treatment. 5-6 week old female, Balb/c mice (Jackson Labs) implanted subcutaneously with 5×10^5CT26 cells in 100 μl PBS. CT26 cells were cultured in RPMI supplemented with 10% FBS. Dosing commenced when tumors reached an average volume of 500-600 mm^3.
For group 3 (αPD-L1), the mice were dosed once, IP, 200 ug (200 uL from 1 mg/ml stock).
Mice were monitored daily for adverse clinical effects. Body weights and tumor luminescent were measured two times per week. At the end of the study, tumors were harvested and cut into 3 parts; one piece for CTL killing assay, one piece for CSFE proliferation assay and one piece (split into two) for OCT/FFPE.
Spleens from 3 vehicle treated tumor bearing mice were physically dissociated in T cell media and passed through a 70 micron filter. After red cell lysis, the cells were pooled, brought up in PBS and stained with CFSE (invitrogen). After washing, these cells were brought up in 20 ml T cell media. Half the cells received Dynal mouse activator beads (CD3/CD28 crosslinking at a 1:1 concentration). CD3/CD28 beads induce proliferation in splenocytes from tumor bearing mouse (data not shown). […]

[8] = test system: TMD8 cell line; experiment: Combination isobologram in TMD8 cell line; type: cell-based; conditions: combination of Compound AA and Compound BB
[9] = test system: 4T1 breast cancer; experiment: Subcutaneous 4T1 breast cancer model; type: in vivo
[10] = test system: GL261-Luc; experiment: GL261-Luc murine glioblastoma subcutaneous model; type: in vivo, mouse; conditions: GL-261 syngeneic glioma, 15 mg/kg QD, PO
Excerpt: In some cases, the GL261 glioblastoma model is used. This is a syngeneic glioblastoma multiform model run subcutaneously or orthotopically, and is described in more detail in the examples provided herein. In some embodiments, the model has previously been treated with radiation therapy but there is a recurrence of the cancer. Compounds provided herein can be administered to models with a recurrence or relapse of cancer after prior treatment.

[11] = test system: CXCL12 stimulated pAKT S473 in T cells and monocytes; experiment: Ex vivo whole blood CXCL12 stimulation of phospho-AKT, LLC-bearing mice; type: in vivo, mouse; conditions: LLC-bearing mice, 3, 7.5 or 15 mg/kg QD PO 12 days, 2 h post dose
Method: C57 BL/6 Albino mice were implanted with 1×10^6 cells in a SC injection in the hind flank. The cell implant material was generated from brei that was passaged from mouse to mouse. Treatment started when tumors were between 160-180 mm^3. Mice were dosed for 12 days, QD, PO with vehicle, 15, 7.5 or 3 mg/kg. On day 12 mice were dosed and terminal blood was collected 2 h post dose by cardiac stick collection. Blood was placed in EDTA K2 collection tube and stored at room temp for PD analysis.
Blood from each animal was aliquotted into 2 plates and warmed to 37° C. degrees. PBS was added to one plate as an unstimulated control. Murine CXCL12/SDF-1 was added to the second plate to a final concentration of 800 ng/mL and plate was returned to the 37° C. degree block. After 2 minutes of incubation, blood was lysed and fixed using paraformaldehyde. Samples were washed and frozen until flow cytometric analysis. T cells were gated using an antibody to CD3 and monocytes were gated as LY6G^− LY6C^high. Intracellular pAKT S473 was measured and percent positive was used for graphing.

C[C@H](NC(=O)c1c(N)nn2cccnc12)c1cc2cccc(C#Cc3cnn(C)c3)c2c(=O)n1-c1ccccc1 [Compound BB]
In vitro toxicology [1]: expected to have very low toxicity
Monocytic iMCs in tumor [2]: decreased
pIC50 [3]: 5.60
Oral exposure (plasma concentrations within 24 hours, FIG. 43) [4]: high
dose-exposure relationship [5]: dose-exposure proportionality
effect of the combination (isobologram) [6]: synergistic effect
Inhibition of spleen T cell proliferation by tumor cells of treated mice (FIGS. 55, 56) [7]: less inhibitory of spleen T cell proliferation; also recorded: can release the suppression
effect of the combination (isobologram) [8]: synergistic effect
tumor growth ([9]; co-administration with docetaxel, paclitaxel, or 5-FU): further reduction in tumor growth
activity in subcutaneous 4T1 breast cancer model ([9]; single agent): single agent activity
Total flux (FIG. 47B) [10]: reduced the total flux
Tumor volume (FIG. 47A) [10]: reduced tumor volume
Ex vivo whole blood CXCL12 stimulation of phospho-AKT in T cells (FIG. 58) [11]: inhibits the ex vivo whole blood stimulation of phosphor-AKT in T cells
Ex vivo whole blood CXCL12 stimulation of phospho-AKT in monocytes (FIG. 59) [11]: inhibits the ex vivo whole blood stimulation of phosphor-AKT in monocytes
